According to patent US20260137707A1, “METHODS OF MODULATING ATXN2 EXPRESSION” (University of Utah Research Foundation, priority 2022, published 2026):
Where a name gives a salt, the structure may show the parent alone. Read-outs that look alike come from different tables or passages of the source.

Assays:
in vitro = conditions: human
Protocol: (§1) Compounds were plated at 2× concentrations in 25 μl in 384 well plates with each compound dose plated in triplicate. An equal volume of S2, H2, or SC cells (24,000 cells/well) suspended in phenol-red free Dulbecco's Modified Eagle Medium (DMEM) with 10% fetal bovine serum and 1× penicillin/streptomycin were added. Cells were grown 24 hrs then assayed first by using the CellTiter-Fluor reagent (20 μl) followed by the addition of Bright-Glo ([…]) luciferase assay, using a multimode plate reader (Beckman DT880). Values were reported as the mean±standard deviation (SD) with n=3. IC50s were determined by the Hill coefficient method using an online tool (https://www.aatbio.com/tools/ic50-calculator).
(§2) These 46 compounds were retested at 12 doses and a zero-compound dose, in multiplexed assays in 96-well plates using CellTiter-Fluor to determine cell viability, then Bright-Glo to determine luciferase expression. The values for H2 and S2 were used as replicates to calculate IC50s and to assess cell viability.
(§3) For CMV-luc and viability charts, the fitted lines are second-order polynomials. Means and SD are shown.

ATXN2-luc [1] = conditions: average ATXN2-luc response of H2 and S1 cells
ATXN2-luc [2] = conditions: H2 cells
ATXN2-luc [3] = assay: cells; conditions: for activity at 1 µM: read-out: Luc at 1 μm; for activity at 10 µM: read-out: Luc at 10 μm
CMV-luc = assay: Secondary assays, Bright-Glo luciferase in SC cells; format: cell-based; conditions: minimum CMV-luc luciferase in SC cells over 12 doses
Protocol: as §1, §3

ATXN2-luc [4] = assay: Secondary assays, Bright-Glo luciferase in H2 and S2 cells; format: cell-based
Protocol: as §1, §2, §3

[5] = Table 1, 24 hrs, single 10 μM dose, Z-score of luciferase

Row | Molecule | Luc at 1 μm (ATXN2-luc [1]) | Luc at 10 μm (ATXN2-luc [1]) | SD from Mean (ATXN2-luc [2]; [5]) [SD] | SD from Mean (ATXN2-luc [2]; Table 5S, pilot screen, 10 μM) [SD] | activity at 10 µM (ATXN2-luc [3]) [%] | further results
1 | O=C(NC1CCNCC1)c1n[nH]cc1NC(=O)c1c(Cl)cccc1Cl [AT7519] |  |  |  |  |  | viability at 24 h (in vitro): 50.3%
2 | CN(C)CCN1C(=O)c2cccc3cc(N)cc(c23)C1=O [Amonafide] |  |  |  |  |  | viability at 24 h (in vitro): 68.2%
3 | C/C1=C2/[N-][C@H]([C@H](CC(N)=O)[C@@]2(C)CCC(=O)NC[C@@H](C)OP(=O)([O-])O[C@H]2[C@@H](O)[C@@H](n3cnc4cc(C)c(C)cc43)O[C@@H]2CO)[C@]2(C)N=C(/C(C)=C3N=C(/C=C4N=C1[C@@H](CCC(N)=O)C\4(C)C)[C@@H](CCC(N)=O)[C@]\3(C)CC(N)=O)[C@@H](CCC(N)=O)[C@]2(C)CC(N)=O.[Co] [COBALAMINE] | 126 | 109 | −5.111 | −5.111 |  | 
4 | CC[C@H]1CN2CCc3cc(OC)c(OC)cc3[C@@H]2C[C@@H]1C[C@H]1NCCc2cc(O)c(OC)cc21.Cl.Cl.O.O.O.O.O.O.O [Cephaeline dihydrochloride heptahydrate] | 16 | 17 | −4.055 | −4.055 |  | 
5 | CCCCCCCCCOc1ccc2[nH]cc(CCN)c2c1 [ChemBridge ID# 5629242] | 110 | 58 | −3.609 |  |  | 
6 | CO[C@H]1[C@@H](O)[C@@H](C)O[C@@H](O[C@H]2CC[C@]3(C)[C@H]4CC[C@]5(C)[C@@H](C6=CC(=O)OC6)CC[C@]5(O)[C@@H]4CC[C@]3(O)C2)[C@@H]1O [EMICYMARIN] | 115 | 31 | −3.080 | −3.080 |  | 
7 | C[C@H]1O[C@@H](O[C@H]2[C@@H](O)C[C@H](O[C@H]3[C@@H](O)C[C@H](O[C@H]4CC[C@@]5(C)[C@H](CC[C@@H]6[C@@H]5CC[C@]5(C)[C@@H](C7=CC(=O)OC7)[C@@H](O)C[C@]65O)C4)O[C@@H]3C)O[C@@H]2C)C[C@H](O)[C@@H]1O [GITOXIN] |  |  | −4.086 | −4.086 | 12 | activity at 1 µM (ATXN2-luc [3]): 21%
8 | CS(=O)(=O)Nc1ccc(Cc2noc(-c3ccc4[nH]cc(CCN)c4c3)n2)cc1 [L-694 247] | 110 | 6 | −3.156 | −3.156 |  | 
9 | CC(=O)O[C@H]1C[C@H](O[C@H]2[C@@H](O)C[C@H](O[C@H]3[C@@H](O)C[C@H](O[C@H]4CC[C@@]5(C)[C@H](CC[C@@H]6[C@@H]5C[C@@H](O)[C@]5(C)[C@@H](C7=CC(=O)OC7)CC[C@]65O)C4)O[C@@H]3C)O[C@@H]2C)O[C@H](C)[C@H]1O[C@@H]1O[C@H](CO)[C@@H](O)[C@H](O)[C@H]1O [LANATOSIDE C] | 39 | 15 | −4.323 | −4.323 |  | SD from Mean (ATXN2-luc [2]; Table 1, 24 hrs, single 10 μM dose, Z-score of luciferase, listed as Lanatoside C): −3.629 SD; SD from Mean (ATXN2-luc [2]; Table 5S, pilot screen, 10 μM, listed as Lanatoside C): −3.629 SD
10 | COc1ccc(CN2CCN(C(c3ccc(F)cc3)c3ccc(F)cc3)CC2)c(OC)c1OC [LOMERIZINE DiHCl] | 102 |  | −2.782 | −2.782 | 55 | 
11 | CC1=CC(=O)c2ccccc2C1=O [Menadione] |  |  | −3.434 |  | 35 | 
12 | CO[C@H]1[C@H](O)[C@H](O[C@H]2CC[C@@]3(C)[C@H](CC[C@@H]4[C@@H]3CC[C@]3(C)[C@@H](C5=CC(=O)OC5)CC[C@]43O)C2)O[C@@H](C)[C@@H]1O [NERIIFOLIN] |  |  | −3.045 |  | 17 | activity at 1 µM (ATXN2-luc [3]): 17%
13 | COC(=O)C1=C(C)NC(C)=C(C(=O)OCCN(C)Cc2ccccc2)C1c1cccc([N+](=O)[O-])c1 (stereo not drawn) [NICARDIPINE] | 112 |  | −2.782 | −2.782 | 61 | 
14 | CO[C@H]1C[C@H](O[C@H]2CC[C@]3(C)[C@H]4CC[C@]5(C)[C@@H](C6=CC(=O)OC6)CC[C@]5(O)[C@@H]4CC[C@]3(O)C2)O[C@H](C)[C@H]1O [PERIPLOCYMARIN] |  |  | −2.759 |  | 17 | activity at 1 µM (ATXN2-luc [3]): 75%
15 | CO[C@H]1[C@H](O)[C@H](O[C@H]2CC[C@@]3(C=O)[C@H](CC[C@@H]4[C@@H]3CC[C@]3(C)[C@@H](C5=CC(=O)OC5)CC[C@]43O)C2)O[C@@H](C)[C@@H]1O [PERUVOSIDE] |  |  | −4.038 | −4.038 | 12 | activity at 1 µM (ATXN2-luc [3]): 15%
16 | CC(=O)Oc1cccc(O)c1 [RESORCINOL MONOACETATE] |  |  | −6.242 | −6.242 | 5 | activity at 1 µM (ATXN2-luc [3]): 120%
17 | C[C@]12CC[C@H](O)C[C@H]1CC[C@@H]1[C@@H]2[C@H](O)C[C@]2(C)[C@@H](C3=CC(=O)OC3)CC[C@]12O [SARMENTOGENIN] |  |  | −3.539 |  | 24 | activity at 1 µM (ATXN2-luc [3]): 53%
18 | COc1ccc(CCCOC(Cn2ccnc2)c2ccc(OC)cc2)cc1 (stereo not drawn) [SKF-96365] |  |  | −2.721 | −2.721 | 57 | activity at 1 µM (ATXN2-luc [3]): 104%
19 | C[C@]12CC[C@H]3[C@@H](CC[C@]4(O)C[C@@H](O)CC[C@]34C=O)[C@@]1(O)CC[C@@H]2C1=CC(=O)OC1 [STROPHANTHIDIN] |  |  |  | −4.451 | 15 | activity at 1 µM (ATXN2-luc [3]): 16%
20 | CC(C)c1cc(/C=C(\C#N)C(=O)NCCCc2ccccc2)cc(C(C)C)c1O [SU1498] | 22 | 15 | −4.885 | −4.885 |  | 
21 | C[n+]1cc2c3c(ccc2c2ccc4cc5c(cc4c21)OCO5)OCO3 [Sanguinarine] | 127 |  | −2.689 | −2.689 | 160 | 
22 | [H]/N=C(/NCCCCC)N/N=C/c1c[nH]c2ccc(OC)cc12 [TEGASEROD MALEATE] |  |  | −3.606 |  | 8 | 
23 | CCN(CC)CCCCCCCCOC(=O)c1cc(OC)c(OC)c(OC)c1 [TMB-8] | 66 | 53 | −5.740 | −5.740 |  | 
24 | CN1CCN(CCCN2c3ccccc3Sc3ccc(C(F)(F)F)cc32)CC1 [TRIFLUOPERAZINE HYDROCHLORIDE] |  |  | −5.856 | −5.856 | 2 | 
25 | Nc1ccc(-c2ccc3ncc4ccc(=O)n(-c5cccc(C(F)(F)F)c5)c4c3c2)cn1 [Torin2] |  |  |  |  |  | min SC luc (CMV-luc): 128.4%; IC50 (ATXN2-luc [4]; ATXN2-luc, Bright-Glo, H2 and S2 values used as replicates, 12 doses, 96-well plates, read-out: Mean IC50): 0.257 µM; min ATXN2-luc (ATXN2-luc [4]; minimum ATXN2-luc luciferase over 12 doses, H2 and S2 cells): 25.42%
26 | COc1cccc(C2(O)CCCCC2CN(C)C)c1 (stereo not drawn) [Tramadol] |  |  | −3.415 |  | 134 | 
27 | O=c1[nH]c(=O)n([C@H]2C[C@H](O)[C@@H](CO)O2)cc1C(F)(F)F [Trifluridine] |  |  | −5.158 | −5.158 | 71 | 
28 | C1CCC(N=C(NC23CC4CC(CC(C4)C2)C3)N2CCOCC2)CC1.Cl [U-37883A] | 94 | 17 | −4.965 | −4.965 |  | 
29 | Cyanocobalamin | 110 | 140 | −2.681 | −2.681 |  | 
30 | STROPH[…] LACTONE ACETATE | 37 | 20 | −3.855 | −3.855 |  | 
